“And” between values parts separate entries of the source, which are not always exact repeats. Equal entries are not always repeated. Structures can show the parent of a compound that is named as a salt. Where two headings read alike, the source gives them in different places.
How the values were obtained:
human 5HT1F receptor = biological target: T1, human 5HT1F receptor (Homo sapiens, UniProt P30939); experiment: Binding to human 5HT1F receptor, [3H]serotonin
T1 sequence (P30939 1-366): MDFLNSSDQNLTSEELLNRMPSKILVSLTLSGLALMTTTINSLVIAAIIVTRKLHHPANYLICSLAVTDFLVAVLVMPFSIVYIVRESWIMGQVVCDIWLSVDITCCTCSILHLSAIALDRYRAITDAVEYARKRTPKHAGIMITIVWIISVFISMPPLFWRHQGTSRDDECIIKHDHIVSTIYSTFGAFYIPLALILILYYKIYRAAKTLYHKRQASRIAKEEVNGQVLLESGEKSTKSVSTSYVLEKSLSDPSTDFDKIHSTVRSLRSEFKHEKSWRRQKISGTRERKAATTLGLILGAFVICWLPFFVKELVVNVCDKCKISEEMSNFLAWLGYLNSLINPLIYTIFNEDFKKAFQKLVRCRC

human 5HT1Dβ receptor = human 5HT1Dβ receptor (Homo sapiens, UniProt P28222); experiment: Binding to human 5HT1Dβ receptor, [3H]serotonin; details: cloned human receptor; read-out: Receptor (pKi) 5HT1Dβ (converted)
human 5HT1E receptor = human 5HT1E receptor (Homo sapiens, UniProt P28566); experiment: Binding to human 5HT1E receptor, [3H]serotonin
[1] = tested on: food intake of 24 h food-deprived rats; experiment: Food intake in food-deprived rats; assay type: in vivo, rat; details: 30 mg/kg i.p. after 24 h food deprivation, percentage of intake compared to control rats
Procedure: At the end of the equilibration period, food is removed from the animals for 24 hours starting at 8:00 a.m. At the end of the fasting period compound or vehicle may be administered to the animals orally or by injection intraperitoneally or intravenously. After 10-60 min. food is returned to the animals and their food intake is monitored at various time periods during the following 24 hour period. The food intake of animals treated with test compound may be calculated as a percentage of the food intake of control animals (i.e., animals treated with vehicle). Alternatively, food intake for each group of animals subjected to a particular experimental condition may be expressed as the mean±S.E.M.
Therefore, the Y5 antagonists of Table 14 were administered by intraperitoneal injection at a dose of 30 mg/kg to conscious rats following a 24 h food deprivation. […] Measurements were performed two hours after administration of the test compound.

[2] = tested on: NPY-induced feeding behavior in satiated rats; experiment: NPY-induced food intake in satiated rats; assay type: in vivo, rat; details: for Food intake (g) mean ± S.E.M., NPY + compound: compound 10 mg/kg i.p., then 300 pmole NPY i.c.v., 4 hours after NPY
Procedure: The rats are individually housed in stainless steel cages and maintained on an 11:13 h light-dark cycle (lights off at 18:00 h) at a controlled temperature of 21-23° C. at all times. Water and food (NAFAG lab chow pellets NAFAG, Gossau, Switzerland) are available ad libidum.
The guide cannula is placed on the dura. Injection cannulas extend the guide cannulas −3.8 mm ventrally to the skull surface. Animals are allowed at least 4 days of recovery postoperatively before being used in the experiments. Cannula placement is checked postoperatively by testing all rats for their drinking response to a 50 ng intracerebroventricular (i.c.v.) injection of angiotensin II. Only rats which drink at least 2.5 ml of water within 30 min. after angiotensin II injection are used in the feeding studies.
All injections are made in the morning 2 hours after light onset. Peptides are injected in artificial cerebrospinal fluid (ACSF) in a volume of 5 μl.
Pellets are then removed from the cage subsequently at each selected time point and replaced with a new set of preweighed pellets. The food intake of animals treated with test compound may be calculated as a percentage of the food intake of control animals i.e., animals treated with vehicle. Alternatively, food intake for each group of animals subjected to a particular experimental condition may be expressed as the mean±S.E.M. Statistical analysis is performed by analysis of variance using the Student-Newman-Keuls test.
Food intake is reported as the mean±S.E.M. intake for a group of animals.

human α2C receptor = biological target: T2, human α2C receptor (Homo sapiens, UniProt P18825); experiment: Binding to cloned human α2C adrenergic receptor, [3H]rauwolscine
T2 sequence (P18825 1-462): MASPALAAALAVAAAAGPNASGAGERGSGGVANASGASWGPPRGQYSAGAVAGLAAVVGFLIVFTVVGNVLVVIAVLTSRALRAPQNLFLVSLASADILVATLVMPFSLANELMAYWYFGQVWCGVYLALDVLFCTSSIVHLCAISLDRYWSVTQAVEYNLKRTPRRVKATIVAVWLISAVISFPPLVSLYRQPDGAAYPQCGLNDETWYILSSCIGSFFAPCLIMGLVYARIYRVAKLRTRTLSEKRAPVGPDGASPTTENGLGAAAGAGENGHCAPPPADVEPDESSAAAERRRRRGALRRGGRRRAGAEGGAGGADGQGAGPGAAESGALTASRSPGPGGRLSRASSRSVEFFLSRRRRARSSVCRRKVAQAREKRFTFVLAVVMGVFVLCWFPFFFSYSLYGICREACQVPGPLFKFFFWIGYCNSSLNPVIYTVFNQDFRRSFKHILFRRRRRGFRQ

human 5HT1Dα receptor = human 5HT1Dα receptor (Homo sapiens, UniProt P28221); experiment: Binding to human 5HT1Dα receptor, [3H]serotonin
human Y1 receptor = biological target: T3, human Y1 receptor (Homo sapiens, UniProt P25929); details: read-out: Binding Affinity (Ki (nM) vs. ^125I-PYY) Human Receptor Y1; Table 14
T3 sequence (P25929 1-384): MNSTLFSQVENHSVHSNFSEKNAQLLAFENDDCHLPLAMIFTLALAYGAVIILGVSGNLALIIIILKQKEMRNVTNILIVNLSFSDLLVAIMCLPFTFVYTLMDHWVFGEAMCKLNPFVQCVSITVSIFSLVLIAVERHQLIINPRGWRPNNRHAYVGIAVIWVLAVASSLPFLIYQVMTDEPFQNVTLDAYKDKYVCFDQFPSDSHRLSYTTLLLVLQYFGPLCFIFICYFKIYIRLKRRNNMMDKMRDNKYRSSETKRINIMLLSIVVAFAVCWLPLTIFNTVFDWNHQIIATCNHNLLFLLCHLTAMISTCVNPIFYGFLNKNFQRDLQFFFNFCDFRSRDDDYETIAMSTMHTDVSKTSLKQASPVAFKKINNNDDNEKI

human Y2 receptor = biological target: T4, human Y2 receptor (Homo sapiens, UniProt P49146); assay type: binding; details: Table 14
T4 sequence (P49146 1-381): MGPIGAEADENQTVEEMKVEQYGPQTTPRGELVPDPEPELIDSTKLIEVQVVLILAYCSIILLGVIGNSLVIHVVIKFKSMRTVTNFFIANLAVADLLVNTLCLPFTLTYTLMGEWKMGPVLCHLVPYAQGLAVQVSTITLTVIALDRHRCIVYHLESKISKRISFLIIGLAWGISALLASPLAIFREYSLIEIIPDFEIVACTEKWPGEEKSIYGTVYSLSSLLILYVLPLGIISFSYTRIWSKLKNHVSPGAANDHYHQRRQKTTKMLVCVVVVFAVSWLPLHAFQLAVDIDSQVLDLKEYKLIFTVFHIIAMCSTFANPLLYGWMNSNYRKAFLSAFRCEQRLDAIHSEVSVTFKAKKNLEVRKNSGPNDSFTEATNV

human Y4 receptor = human Y4 receptor (Homo sapiens, UniProt P50391); assay type: binding; details: Table 14
[3] = read-out: Binding Affinity (Ki (nM) vs. ^125I-PYY) Human Receptor Y2
[4] = read-out: Binding Affinity (Ki (nM) vs. ^125I-PYY) Human Receptor Y4

human 5HT1E receptor, sequence (P28566 whole entry): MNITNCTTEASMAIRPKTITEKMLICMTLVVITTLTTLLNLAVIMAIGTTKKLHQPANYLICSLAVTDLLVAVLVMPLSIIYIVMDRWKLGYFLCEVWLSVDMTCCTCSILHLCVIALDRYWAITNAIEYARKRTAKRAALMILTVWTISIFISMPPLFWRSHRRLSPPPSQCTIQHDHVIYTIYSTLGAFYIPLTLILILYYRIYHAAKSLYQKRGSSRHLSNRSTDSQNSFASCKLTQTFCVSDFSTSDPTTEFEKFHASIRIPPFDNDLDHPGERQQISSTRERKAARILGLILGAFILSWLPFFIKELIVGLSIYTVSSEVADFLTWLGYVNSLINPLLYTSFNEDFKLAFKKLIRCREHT
human 5HT1Dα receptor, sequence (P28221 whole entry): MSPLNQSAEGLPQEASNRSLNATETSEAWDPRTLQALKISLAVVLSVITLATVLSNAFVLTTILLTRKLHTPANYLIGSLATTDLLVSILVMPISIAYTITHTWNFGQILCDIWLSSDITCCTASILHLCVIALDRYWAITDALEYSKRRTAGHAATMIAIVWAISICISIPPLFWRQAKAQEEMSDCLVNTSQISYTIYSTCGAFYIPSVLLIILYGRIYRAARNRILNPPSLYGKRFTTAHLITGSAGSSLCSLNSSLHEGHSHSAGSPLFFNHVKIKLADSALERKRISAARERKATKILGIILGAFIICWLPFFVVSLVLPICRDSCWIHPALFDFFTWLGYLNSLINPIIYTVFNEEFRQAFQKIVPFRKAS
human 5HT1Dβ receptor, sequence (P28222 whole entry): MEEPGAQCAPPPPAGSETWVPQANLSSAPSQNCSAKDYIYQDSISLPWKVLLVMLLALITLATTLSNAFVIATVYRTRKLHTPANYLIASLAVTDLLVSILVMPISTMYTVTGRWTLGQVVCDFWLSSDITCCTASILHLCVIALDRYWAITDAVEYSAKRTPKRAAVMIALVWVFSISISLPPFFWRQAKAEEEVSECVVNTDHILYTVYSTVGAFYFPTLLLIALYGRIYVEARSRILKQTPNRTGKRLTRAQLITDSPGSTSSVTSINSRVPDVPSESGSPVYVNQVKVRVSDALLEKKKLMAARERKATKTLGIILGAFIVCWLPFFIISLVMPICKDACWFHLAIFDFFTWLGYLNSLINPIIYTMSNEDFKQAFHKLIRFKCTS
human Y4 receptor, sequence (P50391 whole entry): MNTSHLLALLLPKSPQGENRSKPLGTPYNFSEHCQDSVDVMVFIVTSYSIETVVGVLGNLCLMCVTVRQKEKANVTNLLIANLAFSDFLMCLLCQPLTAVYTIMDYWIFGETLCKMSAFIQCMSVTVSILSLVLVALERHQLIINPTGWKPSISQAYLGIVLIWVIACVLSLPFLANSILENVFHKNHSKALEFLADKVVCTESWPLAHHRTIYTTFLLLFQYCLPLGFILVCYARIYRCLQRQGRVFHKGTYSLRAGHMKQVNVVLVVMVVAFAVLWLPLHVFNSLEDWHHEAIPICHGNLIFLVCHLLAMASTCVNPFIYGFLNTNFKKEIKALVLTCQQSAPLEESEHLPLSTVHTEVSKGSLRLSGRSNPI

Row | Compound | Ki (human 5HT1F receptor) [µM] | Ki (human 5HT1Dβ receptor) [µM] | Ki (human 5HT1E receptor) [µM] | Two-hour food intake of food-deprived rats, Mean (%) [1] [%] | also measured
1 | Cl.c1ccc(Nc2nc(Nc3ccccc3)c3ccccc3n2)cc1 [Compound 1, 2,4-Diphenylamino-quinazoline Hydrochloride] | ≥ 5.01 | ≥ 5.01 | ≥ 5.01 | 34 | Food intake (g) mean ± S.E.M., NPY + compound [2]: 4.6 ± 0.6 g
2 | Nc1nc(NCCCCCCNS(=O)(=O)c2cccc3ccccc23)nc2ccccc12 [Compound 2, Naphthalene-1-sulfonic Acid [6-(4-amino-quinazolin-2-ylamino)-hexyl]-amide] | – | – | – | 42 | –
3 | Cl.Nc1nc(NC[C@H]2CC[C@H](CNS(=O)(=O)c3cccc4ccccc34)CC2)nc2ccccc12 [Compound 5, trans-Naphthalene-1-sulfonic Acid {4-[(4-amino-quinazolin-2-ylamino)-methyl]-cyclohexylmethyl}-amide Hydrochloride] | ≥ 5.01 | – | ≥ 5.01 | – | Food intake (g) mean ± S.E.M., NPY + compound [2]: 4.1 ± 0.4 g
4 | c1ccc(Nc2nc(Nc3ccc(N4CCCCC4)cc3)nc3ccccc23)cc1 [Compound 6, 2-[4-(Piperidin-1-yl)-phenylaminol-4-phenylamino-quinazoline Dihydrochloride] | ≥ 5.01 | ≥ 5.01 | ≥ 5.01 | 38 | Receptor (pKi) α2c (human α2C receptor): 6.35; Ki (human 5HT1Dα receptor): ≥ 5.01 µM
5 | CC(=O)O[C@H]1CC[C@H](Nc2nc(Nc3ccccc3)c3ccccc3n2)CC1 [Compound 7, trans-2-(4-Acetoxy-cvclohexylamino)-4-phenylamino-quinazoline Hydrochloride] | ≥ 5.01 | ≥ 5.01 | ≥ 5.01 | – | –
6 | COc1ccc(Nc2nc(Nc3ccccc3)c3cccc(OC)c3n2)cc1.Cl [Compound 9, 8-Methoxy-2-(4-methoxy-phenylamino)-4-phenylamino-quinazoline Hydrochloride] | ≥ 5.01 | ≥ 5.01 | ≥ 5.01 | 40 | Ki (human 5HT1Dα receptor): ≥ 5.01 µM
7 | CNS(=O)(=O)Cc1ccc(Nc2nc(Nc3ccccc3)c3cc(OC)ccc3n2)cc1.Cl [Compound 10, N-Methyl-[4-(6-methoxy-4-phenylamino-quinazolin-2-ylamino)-phenyl]-methanesulfonamide Hydrochloride] | ≥ 5.01 | ≥ 5.01 | ≥ 5.01 | 74 | Ki (human 5HT1Dα receptor): ≥ 5.01 µM
8 | CNS(=O)(=O)Cc1ccc(Nc2nc(Nc3ccccc3)c3ccccc3n2)cc1.Cl [Compound 11, N-Methyl-[4-(4-phenylamino-quinazolin-2-ylamino)-phenyl]-methanesulfonamide Hydrochloride] | ≥ 5.01 | ≥ 5.01 | ≥ 5.01 | 15 | Ki (human 5HT1Dα receptor): ≥ 5.01 µM
9 | Cl.O=S(=O)(NC[C@H]1CC[C@H](CNCC2CCc3ccccc3C2)CC1)c1ccc2ccccc2c1 (some centres unmarked) [Compound 17] | – | – | – | 27 | Food intake (g) mean ± S.E.M., NPY + compound [2]: 3.8 ± 0.4 g
10 | Cl.O=S(=O)(NCC1CCC(CNCc2ccc3ccccc3c2)CC1)c1ccccc1C(F)(F)F (centres unmarked) [Compound 21] | – | – | – | 80 | Ki (human Y1 receptor): 13000 nM; Ki (human Y2 receptor; [3]): 1610 nM; Ki (human Y4 receptor; [4]): 18500 nM
11 | Cl.O=S(=O)(NCC1CCC(CNCc2cccc3ccccc23)CC1)c1ccccc1C(F)(F)F (centres unmarked) [Compound 23] | – | – | – | 58 | Ki (human Y1 receptor): 14500 nM; Ki (human Y2 receptor; [3]): 617 nM; Ki (human Y4 receptor; [4]): 21500 nM
12 | O=S(=O)(NC[C@H]1CC[C@H](CNC(CO)Cc2ccc(Cl)cc2)CC1)c1cccc2ccccc12 (some centres unmarked) [Compound 25] | ≥ 5.01 | – | ≥ 5.01 | 32 | Ki (human Y2 receptor): 851 nM; Ki (human Y4 receptor): 13100 nM
13 | Cl.Cl.O=[N+]([O-])c1ccccc1S(=O)(=O)NCC1CCC(CNCc2ccc3ccccc3n2)CC1 (centres unmarked) [Compound 26] | – | – | – | 73 | Ki (human Y1 receptor): 23700 nM; Ki (human Y2 receptor; [3]): 58200 nM; Ki (human Y4 receptor; [4]): 19300 nM
14 | NPY: neuropeptide Y, species not given (Table 1, cited text); in Table 15 300 pmole porcine NPY i.c.v. [reference compound] | – | – | – | – | Food intake (g) mean ± S.E.M., NPY ([2]; 300 pmole NPY i.c.v. alone, cumulative intake 4 hours after NPY, one value per compound experiment): 7.4 ± 0.5 g and 6.8 ± 1.0 g and 5.8 ± 0.5 g and 4.9 ± 0.4 g

Source: patent US6818445B2 (Synaptic Pharmaceutical Corporation, priority 1994, dated 2004)
